In series [1] the test system is extracellular dopamine levels. Briefly: In vivo microdialysis of extracellular dopamine (mPFC, NAc shell, NAc core). Also on record: species or system Male Sprague Dawley rats. The following applies: for DA Concentrations (as Determined from AUCs): mean ± SEM. The protocol: Male Sprague Dawley rats (250–350 g, Janvier, France) were used for all in vivo microdialysis experiments. Animals were kept in groups of four in standard cages (38 cm × 60 cm × 20 cm) and were acclimated to the facility for at least ten days before the beginning of the experiment under controlled environmental conditions (22 ± 2 °C, 60% humidity, 12 h light/dark cycle, with lights on from 08:00 to 20:00 h), with water and standard laboratory food provided ad libitum. To limit the stress due to manipulation during the experiments, each animal was daily handled for approximately 1–2 min throughout the habituation period and contact with the animal house maintenance personnel was limited to a single attendant. The bedding in the home cages was never changed, neither the day before nor the day of the experiment. All experiments were performed between 10:00–18:00 h. (S)-MK-26 (1 or 10 mg/kg) or vehicle (Kolliphor 30% in distilled water) were freshly prepared on the day of the experiment and i.p. administered at a volume of 1.5 mL/kg. The day before the microdialysis experiment, rats were positioned in a stereotaxic apparatus (Stoelting Co., Wood Dale, IL, USA) and under isoflurane anaesthesia (1.5–2%) (Harvard Apparatus, Holliston, MA, USA) implanted with a vertical microdialysis probe. A probe with dialysis membrane of approximately 2–3 mm of free surface (prepared as previously described) was directed unilaterally at the mPFC (PrL and IL; coordinates: 3.0 mm anterior and 0.7 mm lateral to bregma, and 5.5 mm ventral to dura), at the NAc shell (coordinates: 2.0 mm anterior and 0.8 mm lateral to bregma, and 8.0 mm ventral to dura) or NAc core (coordinates: 1.6 mm anterior and 1.6 mm lateral to bregma, and 7.6 mm ventral to dura), according to the rat brain atlas. On the day of the experiment, the animals were transferred to a sound-proof room and after 1 h habituation period, the microdialysis probe was connected with polyethylene tubing to a CMA/100 microinfusion pump (Harvard Apparatus, Holliston, MA, USA) and perfused with a Ringer’s solution (147 mM NaCl, 3 mM KCl and 1.2 mM CaCl2, pH 6.5) at a flow rate of 2.5 µL/min. After an equilibration period of a 2 h of the perfusion medium with the extracellular fluid, dialysate aliquots of 37.5 µL were collected (every 15 min during the experiment) in polyethylene tubes kept on ice for the determination of dopamine concentrations. After collecting at least four dialysate aliquots, rats were i.p. injected with vehicle or (S)-MK-26 (1 or 10 mg/kg), and ten more dialysate aliquots were collected every 15 min. Dopamine concentrations in the dialysates from the NAc (core and shell) and mPFC were measured by high pressure liquid chromatography (HPLC) on a 7.5 cm × 3.0 mm i.d., Supelcosil C18, 3 µm particle size column, (Supelco, Supelchem, Milan, Italy) coupled to electrochemical detection (Coulochem II, ESA, Cambridge, MA, USA) using a 4011 dual cell, as previously described. Detection was performed in reduction mode, with potentials set to +350 and −180 mV. The mobile phase was 0.06 M citrate/acetate pH 4.2, containing methanol 20% v/v, 0.1 mM EDTA, 1 µM triethylamine, and 0.03 mM sodium dodecyl sulphate at a flow rate of 0.6 mL/min. The sensitivity of the assay was 0.125 pg. At the end of the experiments, the rats were sacrificed by decapitation; the brains were immediately removed from the skull and stored in 4% aqueous formaldehyde for 12–15 days. After this period, 40 µm coronal brain sections were prepared with a freezing microtome, stained with Neutral Red and inspected on a phase contrast microscope. The position of the tip of the microdialysis probe in the NAc (core and shell) and mPFC were then corroborated by following the tract of the microdialysis probe through a series of brain sections. […]

Series [2] deals with naive young (12 weeks) male rats. Briefly: Open field, spontaneous locomotor activity. The format is in vivo, rat. The protocol:
Animals were habituated to the experimental room twenty-four hours prior to the start of the experiment. The open field consisted of a black wooden board (1.20 m × 1.20 m) surrounded by white wooden walls (50 cm in height); light was adjusted to 150 lux. Each animal was placed in the middle of the open-field arena (animal experiments conducted under BMBWF-66.009/235/V/3b/2018 regulations) and behavior was recorded for 10 min. Data analysis was performed using the AnyMaze software (Stoelting Co., IL, USA). The test consisted of one habituation session on the first day and one test session on the following day. Each animal received (S)-MK-26 at 10, 20, 0 and 1 mg/kg of body weight with wash-out period of nine days between each treatment.

Consider one compound from paper PMC9312958, “A Novel and Selective Dopamine Transporter Inhibitor, (S)-MK-26, Promotes Hippocampal Synaptic Plasticity and Restores Effort-Related Motivational Dysfunctions” (Biomolecules, 2022).

SMILES strings stand for the structures.

Regarding `[O-][S@@+](Cc1cncs1)C(c1cccc(Cl)c1)c1cccc(Cl)c1` [(S)-MK-26, (S)-5-(((B(3-chlorophenyl)methyl)sulphinyl)methyl)thiazole], the “DA Concentrations (as Determined from AUCs)” value worked out at 3056 ± 644 in series [1] (NAc core dialysate, 1 mg/kg i.p.); 7861 ± 1697 in series [1] (NAc core dialysate, 10 mg/kg i.p.); 2972 ± 1094 in series [1] (NAc shell dialysate, 1 mg/kg i.p.); 7730 ± 1389 in series [1] (NAc shell dialysate, 10 mg/kg i.p.); 3159 ± 223 in series [1] (mPFC dialysate, 1 mg/kg i.p.); 4983 ± 547 in series [1] (mPFC dialysate, 10 mg/kg i.p.). In addition, in series [1] (NAc core, 1 mg/kg i.p.), the “peak increase of extracellular dopamine concentration above basal values” was “about 25%”. The “peak increase of extracellular dopamine concentration” value is given as “about 65%” in series [1] (NAc core, 10 mg/kg i.p., peak 60–75 min after treatment); “about 70%” in series [1] (NAc shell, 10 mg/kg i.p., peak 30–45 min after treatment); “about 40%” in series [1] (mPFC, 1 mg/kg i.p., peak at 30 min after treatment); “about 75%” in series [1] (mPFC, 10 mg/kg i.p., peak at 45 min after treatment). The “effect on total distance travelled over 10 min” value in series [2] (1, 10, 20 mg/kg vs vehicle) is “no effect”. Further, in series [2] (highest dose (20 mg/kg), p = 0.0236), the “activity (distance travelled) within the initial 5 min of the test session” value is reported as “moderately increased activity”. The “stereotypic or anxiogenic behavior” value in series [2] (open field, 1, 10, 20 mg/kg) was “did not induce stereotypic or anxiogenic behavior”.
